Experimental data as given in US20050267133A1, “Pyrazolopyrimidines as kinase inhibitors” (priority 2002, published 2005).

Assays:
[1] = target: T1, GST-TIE2 (intracellular domains of human TIE2) (Homo sapiens, UniProt Q02763); assay: TIE-2 Enzyme Assay (TIE2-E), LANCE method; type: biochemical; details: preactivated GST-TIE2, 1 μM D1-15 peptide, 80 uM ATP, 30 mins at room temperature; pIC50 = -log IC50 in Molar
T1 construct: made in house
From the text: The TIE-2 enzyme assay used the LANCE method (Wallac) and GST-TIE2, baculovirus expressed recombinant constructs of the intracellular domains of human TIE2 (amino acids 762-1104, GenBank Accession # L06139) tagged by GST). The method measured the ability of the purified enzymes to catalyse the transfer of the γ-phosphate from ATP onto tyrosine residues in a biotinylated synthetic peptide, D1-15 (biotin-C6-LEARLVAYEGWVAGKKKamide). This peptide phosphorylation was detected using the following procedure: for enzyme preactivation, GST-TIE2 was incubated for 30 mins at room temperature with 2 mM ATP, 5 mM MgCl2 and 12.5 mM DTT in 22.5 mM HEPES buffer (pH7.4). Preactivated GST-TIE2 was incubated for 30 mins at room temperature in 96 well plates with 1 μM D1-15 peptide, 80 uM ATP, 10 mM MgCl2, 0.1 mg/ml BSA and the test compound (diluted from a 10 mM stock in DMSO, final DMSO concentration was 2.4%) in 1 mM HEPES (pH7.4). The reaction was stopped by the addition of EDTA (final concentration 45 mM). Streptavidin linked-APC (allophycocyanin, Molecular Probe) and Europium-labeled anti-phosphorylated tyrosine antibody (Wallac) were then added at the final concentration of 17 μg/well and 2.1 μg/well, respectively. The APC signal was measured using an ARVO multilabel counter. (Wallac Berthold Japan). The percent inhibition of activity was calculated relative to blank control wells.
The concentration of test compound that inhibits 50% of activity (IC50) was interpolated using nonlinear regression (Levernberg-Marquardt) and the equation, y=Vmax (1−x/(K+x))+Y2, where “K” was equal to the IC50. The IC50 values were converted to pIC50 values, i.e., −log IC50 in Molar concentration.
Test compounds are employed in free or salt form.

[2] = target: GSK-3β (Homo sapiens, UniProt P49841); assay: GSK3 scintillation proximity assay (SPA) kinase assay; type: biochemical; details: 20 nM kinase, 2.5 uM ATP, biotinylated glycogen synthase peptide, 40 minutes at room temperature; -log IC50 in Molar; read-out: GSK-3 pIC50 (converted)
Chain of GSK-3β (P49841 whole entry, species assumed): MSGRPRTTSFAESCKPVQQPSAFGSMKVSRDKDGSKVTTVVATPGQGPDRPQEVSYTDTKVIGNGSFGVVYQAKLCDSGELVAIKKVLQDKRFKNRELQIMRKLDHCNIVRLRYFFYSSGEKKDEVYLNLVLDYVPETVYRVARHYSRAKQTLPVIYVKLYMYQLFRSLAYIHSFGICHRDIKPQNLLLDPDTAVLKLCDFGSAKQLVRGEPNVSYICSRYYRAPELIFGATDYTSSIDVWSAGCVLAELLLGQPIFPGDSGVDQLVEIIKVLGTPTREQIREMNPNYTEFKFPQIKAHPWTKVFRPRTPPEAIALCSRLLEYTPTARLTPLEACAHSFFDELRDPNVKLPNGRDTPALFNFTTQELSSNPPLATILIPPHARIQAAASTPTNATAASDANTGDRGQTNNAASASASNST
From the text: The phosphorylated biotinylated peptide is then captured onto streptavidin coated scintillation proximity assay (SPA) beads from Amersham Technology, where the signal from the ^33P is amplified via the scintillant contained in the beads.
GSK-3β is commercially available or may be cloned and expressed in E. coli using standard techniques to produce soluble, active protein. The production of active protein involves purification in two steps using Metal Chelate and Ion Exchange Chromatography. Protein eluting from Ion Exchange provides >90% pure product that may then be concentrated for use in high throughput screening.
The kinase was assayed at a concentration of 20 nM final in 100 mM HEPES, pH 7.2 containing 10 mM magnesium chloride, 0.1 mg/mL bovine serum albumin, 1 mM dithiothreitol, 0.3 mg/mL heparin, 2.8 uM peptide substrate, 2.5 uM ATP, and 0.2 uCi/well [[…]-^33P]-ATP. After 40 minutes incubation at room temperature, the reaction was stopped by addition of 100 mM EDTA and […] in 100 mM HEPES, pH7.2 followed by an additional solution of diluted Streptavidin coated SPA beads in PBS, pH 7.2 to give a final concentration of 0.25 mg of beads per assay well in a 96-well microtiter plate.
10 mM stock solutions of the compounds of the invention in 100% DMSO are generated as a first step in the screening process. The second step involves the creation of dose response plates where these compounds are diluted 10-fold in 100% DMSO to 1 mM concentrations and subsequently serially diluted 3-fold in 100% DMSO across the plate by automated liquid handling such that the final top concentration of inhibitor is 0.033 mM in the 30 uL kinase assay. The third step involves the creation of the assay plates. This is achieved by transferring 1 uL of the compounds to assay plates by automated liquid handling. The fourth step is to perform the assay as described and count the resulting plates in the Packard TopCount NXT microplate scintillation and luminescence counter.
The final step is data acquisition and analysis where IC50 values are generated for each compound by normalizing curve data to the equation 100*(U1−C2)/(C1−C2) (where U1 is the cpm value, C2 is the background, and C1 is the maximum number of counts), then fitting the normalized data to the equation y=Vmax*(1−(x/(K+x))). The IC50 values were converted to pIC50 values, i.e., −log IC50 in Molar concentration. The data is expressed below in Table 1.

T1 sequence (Q02763 762-1104): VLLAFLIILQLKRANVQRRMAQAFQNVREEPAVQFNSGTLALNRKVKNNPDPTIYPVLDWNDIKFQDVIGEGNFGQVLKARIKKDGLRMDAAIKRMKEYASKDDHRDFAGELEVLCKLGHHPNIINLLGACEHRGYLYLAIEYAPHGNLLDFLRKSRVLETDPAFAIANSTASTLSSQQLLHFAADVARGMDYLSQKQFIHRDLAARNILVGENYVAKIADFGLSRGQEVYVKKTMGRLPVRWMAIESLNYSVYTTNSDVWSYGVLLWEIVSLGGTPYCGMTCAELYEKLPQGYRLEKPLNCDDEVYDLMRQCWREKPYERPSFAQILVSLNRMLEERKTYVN

Compound | IC50 [1] [nM] | IC50 [2] [nM]
O=C(NCCCN1CCCC1)c1ccc(/C=N/Nc2ncnc3c2cnn3-c2ccccc2)cc1 [Example 26, 4-{(E)-[(1-phenyl-1H-pyrazolo[3,4-d]pyrimidin-4-yl)hydrazono]methyl}-N-(3-pyrrolidin-1-ylpropyl)benzamide] | 100 to 1000 | < 100
COc1cc(/C=N/Nc2ncnc3c2cnn3-c2ccccc2)cc(O)c1OC [Example 7, 3-Hydroxy-4,5-dimethoxybenzaldehyde (1-phenyl-1H-pyrazolo[3,4-d]pyrimidin-4-yl)hydrazone] | 100 to 1000 | < 100
[O-][n+]1ccc(/C=N/Nc2ncnc3c2cnn3-c2ccccc2)cc1 [Example 58, Pyridine-N-oxide-4-carboxaldehyde [1-(phenyl)-1H-pyrazolo[3,4-d]pyrimidin-4-yl]hydrazone] | 1000 to 10000 | < 100
OCc1ccc(/C=N/Nc2ncnc3c2cnn3-c2ccccc2)o1 [Example 51, 5-Hydroxymethyl-2-furaldehyde [1-(phenyl)-1H-pyrazolo[3,4-d]pyrimidin-4-yl]hydrazone] | 1000 to 10000 | 1000 to 10000
C(=NNc1ncnc2c1cnn2-c1ccccc1)c1cccnc1 [Example 2, Nicotinaldehyde (1-phenyl-1H-pyrazolo[3,4-d]pyrimidin-4-yl)hydrazone] | 1000 to 10000 | < 100
O=C(NCCN1CCCCC1)c1ccc(/C=N/Nc2ncnc3c2cnn3-c2ccccc2)cc1 [Example 33, 4-{(E)-[(1-phenyl-1H-pyrazolo[3,4-d]pyrimidin-4-yl)hydrazono]methyl}-N-(2-piperidin-1-ylethyl)benzamide] | 100 to 1000 | < 100
CC(=O)Nc1ccc(/C=N/Nc2ncnc3c2cnn3-c2ccccc2)cc1 [Example 52, 4-Acetamidobenzaldehyde [1-(phenyl)-1H-pyrazolo[3,4-d]pyrimidin-4-yl]hydrazone] | 100 to 1000 | 100 to 1000
O=C(NCCCN1CCOCC1)c1ccc(/C=N/Nc2ncnc3c2cnn3-c2ccccc2)cc1 [Example 27] | 100 to 1000 | < 100
CS(=O)(=O)CCNC(=O)c1ccc(/C=N/Nc2ncnc3c2cnn3-c2ccccc2)cc1 [Example 38, N-[2-(Methylsulfonyl)ethyl]-4-{(E)-[(1-phenyl-1H-pyrazolo[3,4-d]pyrimidin-4-yl)hydrazono]methyl}benzamide] | 100 to 1000 | < 100
Fc1ccc(/C=N/Nc2ncnc3c2cnn3-c2ccccc2)cc1 [Example 50, 4-Fluorobenzaldehyde (1-phenyl-1H-pyrazolo[3,4-d]pyrimidin-4-yl)hydrazone] | 1000 to 10000 | 100 to 1000
CN(CCc1ccccn1)C(=O)c1ccc(/C=N/Nc2ncnc3c2cnn3-c2ccccc2)cc1 [Example 30, N-Methyl-4-{(E)-[(1-phenyl-1H-pyrazolo[3,4-d]pyrimidin-4-yl)hydrazono]methyl}-N-(2-pyridin-2-ylethyl)benzamide] | 100 to 1000 | 100 to 1000
NCCCNC(=O)c1ccc(/C=N/Nc2ncnc3c2cnn3-c2ccccc2)cc1 [Example 32, N-(3-aminopropyl)-4-{(E)-[(1-phenyl-1H-pyrazolo[3,4-d]pyrimidin-4-yl)hydrazono]methyl}benzamide] | 100 to 1000 | 100 to 1000
O=C(NCCN1CCCC1)c1ccc(/C=N/Nc2ncnc3c2cnn3-c2ccccc2)cc1 [Example 34, 4-{(E)-[(1-phenyl-1H-pyrazolo[3,4-d]pyrimidin-4-yl)hydrazono]methyl}-N-(2-pyrrolidin-1-ylethyl)benzamide] | 100 to 1000 | 100 to 1000
NCCNC(=O)c1ccc(/C=N/Nc2ncnc3c2cnn3-c2ccccc2)cc1 [Example 31, N-(2-Aminoethyl)-4-{(E)-[(1-phenyl-1H-pyrazolo[3,4-d]pyrimidin-4-yl)hydrazono]methyl}benzamide] | 1000 to 10000 | 100 to 1000
O=C(O)c1cccc(/C=N/Nc2ncnc3c2cnn3-c2ccccc2)c1 [Example 39, 3-{(E)-[(1-phenyl-1H-pyrazolo[3,4-d]pyrimidin-4-yl)hydrazono]methyl}benzoic Acid] | 1000 to 10000 | 1000 to 10000
CCOc1cc(/C=N/Nc2ncnc3c2cnn3-c2ccccc2)ccc1O [Example 49, 3-Ethoxy-4-hydroxy-benzaldehyde (1-phenyl-1H-pyrazolo[3,4-d]pyrimidin-4-yl)hydrazone] | 1000 to 10000 | 1000 to 10000
CN(C)CCN1CCN(C(=O)c2ccc(/C=N/Nc3ncnc4c3cnn4-c3ccccc3)cc2)CC1 [Example 35, 4-({4-[2-(Dimethylamino)ethyl]piperazin-1-yl}carbonyl)benzaldehyde (1-phenyl-1H-pyrazolo[3,4-d]pyrimidin-4-yl)hydrazone] | 100 to 1000 | 100 to 1000
OCc1cc(/C=N/Nc2ncnc3c2cnn3-c2ccccc2)ccc1O [Example 44, 4-Hydroxy-3-hydroxymethylbenzaldehyde (1-phenyl-1H-pyrazolo[3,4-d]pyrimidin-4-yl)hydrazone] | 100 to 1000 | 100 to 1000
NS(=O)(=O)c1ccc(/C=N/Nc2ncnc3c2cnn3-c2ccccc2)cc1 [Example 20, 4-{(E)-[(1-phenyl-1H-pyrazolo[3,4-d]pyrimidin-4-yl)hydrazonol]methyl}benzenesulfonamide] | 100 to 1000 | < 100
O=C(NCCc1c[nH]cn1)c1ccc(/C=N/Nc2ncnc3c2cnn3-c2ccccc2)cc1 [Example 29, N[2-(1H-imidazol-4-yl)ethyl]-4-{(E)-[(1-phenyl-1H-pyrazolo[3,4-d]pyrimidin-4-yl)hydrazono]methyl}benzamide] | 100 to 1000 | 100 to 1000
C(=N\Nc1ncnc2c1cnn2-c1ccccc1)/c1ccncc1 [Example 1, Isonicotinaldehyde (1-phenyl-1H-pyrazolo[3,4-d]pyrimidin-4-yl)hydrazone] | 100 to 1000 | 100 to 1000
OCCOc1ccc(/C=N/Nc2ncnc3c2cnn3-c2ccccc2)cc1 [Example 53, 4-(2-Hydroxyethoxy)benzaldehyde [1-(phenyl)-1H-pyrazolo[3,4-d]pyrimidin-4-yl]hydrazone] | 1000 to 10000 | 100 to 1000
OCCOc1cccc(/C=N/Nc2ncnc3c2cnn3-c2ccccc2)c1 [Example 5, 3-(2-Hydroxyethoxy)benzaldehyde (1-phenyl-1H-pyrazolo[3,4-d]pyrimidin-4-yl)hydrazone] | 100 to 1000 | < 100
COc1cc(/C=N/Nc2ncnc3c2cnn3-c2ccccc2)cc(C(=O)O)c1O [Example 47, 3-Carboxy-4-Hydroxy-5-methoxybenzaldehyde (1-phenyl-1H-pyrazolo[3,4-d]pyrimidin-4-yl)hydrazone] | 1000 to 10000 | 100 to 1000
COc1cc(/C=N/Nc2ncnc3c2cnn3-c2ccccc2)ccc1O [Example 43, 4-Hydroxy-3-methoxybenzaldehyde (1-phenyl-1H-pyrazolo[3,4-d]pyrimidin-4-yl)hydrazone] | 100 to 1000 | < 100
O=C(O)/C=C/c1ccc(/C=N/Nc2ncnc3c2cnn3-c2ccccc2)cc1 [Example 61, 4-Formylcin namic acid [1-(phenyl)-1H-pyrazolo[3,4-d]pyrimidin-4-yl]hydrazone] | 100 to 1000 | 100 to 1000
